The values that follow come from ChEMBL document CHEMBL3046469, “Fungicidal Activities of 2-(Substituted Phenoxymethyl)phenyl-2-methoxyiminoacaetamide Derivatives” (1998).

In one assay the test system is Pyricularia oryzae. Briefly: Fungicidal activity against Magnaporthe oryzae assessed as rice blast disease control at 7.8 ppm foliar application for 24 hr after inoculation at 27 +/- 2 degC measured after 5 days by curative manner. It counts as functional.
On to `CNC(=O)/C(=N/OC)c1ccccc1COc1cccc(OC(C)C)c1`, for which the Activity amounted to 90%.

The subject of another assay is Pseudoperonospora cubensis. Briefly: Fungicidal activity against Pseudoperonospora cubensis assessed as cucumber downy mildew disease control at 7.8 ppm foliar application 24 hr before inoculation onto the abaxial(untreated) surface of leaf by preventive manner. Type of assay: functional.
Regarding `CNC(=O)/C(=N/OC)c1ccccc1COc1ccc(Cl)cc1C`, the Activity came to 90%.

The next assay concerns Botrytis cinerea. Briefly: Fungicidal activity against Botryotinia fuckeliana assessed as cucumber gray mold disease control at 31.3 ppm foliar application […] at 22 +/- 2 degC by preventive manner. Type of assay: functional.
Consider `CNC(=O)/C(=N/OC)c1ccccc1COc1cccc(C)c1C`, for which the Activity is 90%.
`CNC(=O)/C(=N/OC)c1ccccc1COc1ccccc1C(F)(F)F`: the Activity is on record as 90%.

The test system of the next assay is Pyricularia oryzae. Briefly: Fungicidal activity against Magnaporthe oryzae assessed as rice blast disease control at 31.3 ppm foliar application for 24 hr before inoculation at 27 +/- 2 degC measured after 5 days by preventive manner. It counts as functional.
Consider `CNC(=O)/C(=N/OC)c1ccccc1COc1ccc(Cl)cc1Cl`, for which the Activity is on record as 90%.
Consider `CO/N=C(/C(=O)N(C)C)c1ccccc1COc1cc(C)ccc1C`, for which the Activity is given as 90%.
Consider `CNC(=O)/C(=N\OC)c1ccccc1COc1cc(C)ccc1C`, for which the Activity was determined as 90%.

The subject of another assay is Blumeria graminis f. sp. tritici. Briefly: Fungicidal activity against Blumeria graminis f. sp. tritici assessed as wheat powdery mildew disease control at 31.3 ppm foliar application for 48 hr before inoculation by preventive manner. Type of assay: functional.
As for `CNC(=O)/C(=N/OC)c1ccccc1COc1cccc(C)c1C`, the Activity amounted to 90%.

The subject of another assay is Podosphaera fuliginea. Briefly: Fungicidal activity against Podosphaera fuliginea assessed as cucumber powdery mildew control at 2 ppm foliar application 24 hr before inoculation at 23 +/- 2 degC by preventive manner. It counts as functional.
Turning to `CNC(=O)/C(=N/OC)c1ccccc1COc1ccc(Cl)cc1Cl`, the Activity is listed as 90%.
`CNC(=O)/C(=N/OC)c1ccccc1COc1ccc(Cl)cc1C`: the Activity worked out at 90%.
Turning to `CNC(=O)/C(=N/OC)c1ccccc1COc1ccccc1C`, the Activity is recorded as 90%.
In the case of `CNC(=O)/C(=N/OC)c1ccccc1COc1cc(C)cc(C)c1C`, the Activity is on record as 90%.

For a further assay, the system named is Pseudoperonospora cubensis. Briefly: Fungicidal activity against Pseudoperonospora cubensis assessed as cucumber downy mildew disease control at 125 ppm foliar application 24 hr before inoculation onto the abaxial(untreated) surface of leaf by preventive manner. Type of assay: functional.
With `CNC(=O)/C(=N/OC)c1ccccc1COc1ccccc1C`, the Activity was determined as 90%.
As to `CNC(=O)/C(=N/OC)c1ccccc1COc1cccc(C)c1C`, the Activity was 90%.
The same measure, in the same setting: the result for `CNC(=O)/C(=N/OC)c1ccccc1COc1cc(C)cc(C)c1C` reads 90%; that for `CNC(=O)/C(=N/OC)c1ccccc1COc1ccccc1C(F)(F)F`, 90%.

The subject of the next assay is Thanatephorus cucumeris. Briefly: Fungicidal activity against Thanatephorus cucumeris assessed as rice sheath blight disease control at 125 ppm foliar application for 24 hr before inoculation at 26 +/- 2 degC measured after 5 days by preventive manner. Type of assay: functional.
Take `CNC(=O)/C(=N/OC)c1ccccc1COc1ccc(Cl)cc1Cl`: the Activity is recorded as less than 90%.
Turning to `CNC(=O)/C(=N/OC)c1ccccc1COc1cccc(OC(C)C)c1`, the Activity came to 90%.
For `CNC(=O)/C(=N/OC)c1ccccc1COc1cccc(C)c1C`, the Activity is 90%.

The test system of a further assay is Blumeria graminis f. sp. tritici. Briefly: Fungicidal activity against Blumeria graminis f. sp. tritici assessed as wheat powdery mildew disease control at 2 ppm foliar application for 48 hr before inoculation by preventive manner. Type of assay: functional.
In the case of `CNC(=O)/C(=N/OC)c1ccccc1COc1ccc(Cl)cc1Cl`, the Activity is listed as 90%.
Take `CNC(=O)/C(=N/OC)c1ccccc1COc1ccc(Cl)cc1C`: the Activity amounted to 90%.
Regarding `CNC(=O)/C(=N/OC)c1ccccc1COc1cccc(OC(C)C)c1`, the Activity turned out to be 90%.
Turning to `CNC(=O)/C(=N/OC)c1ccccc1COc1ccccc1C`, the Activity worked out at 90%.
In the case of `CNC(=O)/C(=N/OC)c1ccccc1COc1cc(C)cc(C)c1C`, the Activity is reported as 90%.
Still for that read-out and setting: the figure for `CNC(=O)/C(=N/OC)c1ccccc1COc1ccccc1C(F)(F)F` is 90%.
As for `CNC(=O)/C(=N\OC)c1ccccc1COc1cc(C)ccc1C`, the Activity was 90%.

The subject of another assay is Thanatephorus cucumeris. Briefly: Fungicidal activity against Thanatephorus cucumeris assessed as rice sheath blight disease control at 7.8 ppm foliar application for 24 hr before inoculation at 26 +/- 2 degC measured after 5 days by preventive manner. It counts as functional.
With `CNC(=O)/C(=N/OC)c1ccccc1COc1cc(C)cc(C)c1C`, the Activity worked out at 90%.
On the same count and under the same terms, the result for `CNC(=O)/C(=N/OC)c1ccccc1COc1ccccc1C(F)(F)F` reads 90%.

The subject of the next assay is Blumeria graminis f. sp. tritici. Briefly: Fungicidal activity against Blumeria graminis f. sp. tritici assessed as wheat powdery mildew disease control at 7.8 ppm foliar application 48 hr after inoculation by curative manner. It counts as functional.
Turning to `CNC(=O)/C(=N/OC)c1ccccc1COc1cccc(OC(C)C)c1`, the Activity is listed as 90%.
Still for that read-out and setting: the result for `CNC(=O)/C(=N\OC)c1ccccc1COc1cc(C)ccc1C` reads 90%.

Another assay relates to Podosphaera fuliginea. Briefly: Fungicidal activity against Podosphaera fuliginea assessed as cucumber powdery mildew control at 7.8 ppm foliar application 24 hr after inoculation at 23 +/- 2 degC by curative manner. It counts as functional.
As to `CO/N=C(/C(=O)N(C)C)c1ccccc1COc1cc(C)ccc1C`, the Activity turned out to be 90%.
As to `CNC(=O)/C(=N/OC)c1ccccc1COc1cccc(OC(C)C)c1`, the Activity turned out to be 90%.
For `CNC(=O)/C(=N\OC)c1ccccc1COc1cc(C)ccc1C`, the Activity came to 90%.

For the next assay, the system named is Podosphaera fuliginea. Briefly: Fungicidal activity against Podosphaera fuliginea assessed as cucumber powdery mildew control at 31.3 ppm foliar application 24 hr before inoculation at 23 +/- 2 degC by preventive manner. It counts as functional.
As for `CO/N=C(/C(=O)N(C)C)c1ccccc1COc1cc(C)ccc1C`, the Activity worked out at 90%.
On to `CNC(=O)/C(=N/OC)c1ccccc1COc1cccc(C)c1C`, for which the Activity is 90%.

The subject of another assay is Botrytis cinerea. Briefly: Fungicidal activity against Botryotinia fuckeliana assessed as cucumber gray mold disease control at 7.8 ppm foliar application […] at 22 +/- 2 degC by preventive manner. It counts as functional.
As for `CNC(=O)/C(=N/OC)c1ccccc1COc1cccc(OC(C)C)c1`, the Activity was determined as 90%.
In the case of `CNC(=O)/C(=N/OC)c1ccccc1COc1ccccc1C`, the Activity is on record as 90%.
Take `CNC(=O)/C(=N\OC)c1ccccc1COc1cc(C)ccc1C`: the Activity was found to be 90%.

In a further assay the test system is Pseudoperonospora cubensis. Briefly: Fungicidal activity against Pseudoperonospora cubensis assessed as cucumber downy mildew disease control at 31.3 ppm foliar application 24 hr before inoculation onto the abaxial(untreated) surface of leaf by preventive manner. Type of assay: functional.
On to `CNC(=O)/C(=N/OC)c1ccccc1COc1ccc(Cl)cc1Cl`, for which the Activity stood at 90%.
As for `CNC(=O)/C(=N/OC)c1ccccc1COc1cccc(OC(C)C)c1`, the Activity was found to be 90%.

A further assay concerns Podosphaera fuliginea. Briefly: Fungicidal activity against Podosphaera fuliginea assessed as cucumber powdery mildew control at 7.8 ppm foliar application 24 hr before inoculation at 23 +/- 2 degC by preventive manner. It counts as functional.
For `CNC(=O)/C(=N/OC)c1ccccc1COc1cccc(OC(C)C)c1`, the Activity stood at 90%.
`CNC(=O)/C(=N/OC)c1ccccc1COc1ccccc1C(F)(F)F`: the Activity was found to be 90%.
In the case of `CNC(=O)/C(=N\OC)c1ccccc1COc1cc(C)ccc1C`, the Activity is listed as 90%.

The test system of a further assay is Pyricularia oryzae. Briefly: Fungicidal activity against Magnaporthe oryzae assessed as rice blast disease control at 125 ppm foliar application for 24 hr after inoculation at 27 +/- 2 degC measured after 5 days by curative manner. It counts as functional.
As for `CO/N=C(/C(=O)N(C)C)c1ccccc1COc1cc(C)ccc1C`, the Activity is listed as 90%.
As for `CNC(=O)/C(=N\OC)c1ccccc1COc1cc(C)ccc1C`, the Activity was 90%.

A further assay concerns Pseudoperonospora cubensis. Briefly: Fungicidal activity against Pseudoperonospora cubensis assessed as cucumber downy mildew disease control at 7.8 ppm foliar application 24 hr before inoculation onto the adaxial(treated) surface of leaf by preventive manner. It counts as functional.
Regarding `CNC(=O)/C(=N/OC)c1ccccc1COc1ccc(Cl)cc1Cl`, the Activity stood at 90%.
`CNC(=O)/C(=N/OC)c1ccccc1COc1cccc(OC(C)C)c1`: the Activity stood at 90%.
As to `CNC(=O)/C(=N/OC)c1ccccc1COc1ccccc1C(F)(F)F`, the Activity was determined as 90%.

For the next assay, the system named is Botrytis cinerea. Briefly: Fungicidal activity against Botryotinia fuckeliana assessed as cucumber gray mold disease control at 7.8 ppm foliar application […] at 22 +/- 2 degC by curative manner. It counts as functional.
`CNC(=O)/C(=N/OC)c1ccccc1COc1cccc(OC(C)C)c1`: the Activity turned out to be 90%.
The same measure, in the same setting: the figure for `CNC(=O)/C(=N\OC)c1ccccc1COc1cc(C)ccc1C` is 90%.

For a further assay, the system named is Pyricularia oryzae. Briefly: Fungicidal activity against Magnaporthe oryzae assessed as rice blast disease control at 7.8 ppm foliar application for 24 hr before inoculation at 27 +/- 2 degC measured after 5 days by preventive manner. It counts as functional.
For the compound `CNC(=O)/C(=N/OC)c1ccccc1COc1ccc(Cl)cc1C`, the Activity came out at 90%.
Regarding `CNC(=O)/C(=N/OC)c1ccccc1COc1cccc(OC(C)C)c1`, the Activity was 90%.
On to `CNC(=O)/C(=N/OC)c1ccccc1COc1cc(C)cc(C)c1C`, for which the Activity is recorded as 90%.

Another assay concerns Thanatephorus cucumeris. Briefly: Fungicidal activity against Thanatephorus cucumeris assessed as rice sheath blight disease control at 31.3 ppm foliar application for 24 hr before inoculation at 26 +/- 2 degC measured after 5 days by preventive manner. Type of assay: functional.
In the case of `CNC(=O)/C(=N/OC)c1ccccc1COc1ccc(Cl)cc1C`, the Activity stood at 90%.
`CNC(=O)/C(=N/OC)c1ccccc1COc1ccccc1C`: the Activity was determined as 90%.

The subject of another assay is Botrytis cinerea. Briefly: Fungicidal activity against Botryotinia fuckeliana assessed as cucumber gray mold disease control at 2 ppm foliar application […] at 22 +/- 2 degC by preventive manner. It counts as functional.
`CNC(=O)/C(=N/OC)c1ccccc1COc1ccc(Cl)cc1Cl`: the Activity turned out to be 90%.
Consider `CNC(=O)/C(=N/OC)c1ccccc1COc1ccc(Cl)cc1C`, for which the Activity is listed as 90%.
Regarding `CNC(=O)/C(=N/OC)c1ccccc1COc1cc(C)cc(C)c1C`, the Activity turned out to be 90%.

The subject of another assay is Pseudoperonospora cubensis. Briefly: Fungicidal activity against Pseudoperonospora cubensis assessed as cucumber downy mildew disease control at 2 ppm foliar application 24 hr before inoculation onto the adaxial(treated) surface of leaf by preventive manner. Type of assay: functional.
For the compound `CNC(=O)/C(=N/OC)c1ccccc1COc1ccc(Cl)cc1C`, the Activity is 90%.
`CNC(=O)/C(=N/OC)c1ccccc1COc1ccccc1C`: the Activity was determined as 90%.
As for `CNC(=O)/C(=N/OC)c1ccccc1COc1cccc(C)c1C`, the Activity was found to be 90%.
The same measure, in the same setting: the result for `CNC(=O)/C(=N/OC)c1ccccc1COc1cc(C)cc(C)c1C` reads 90%.

The next assay relates to Pyricularia oryzae. Briefly: Fungicidal activity against Magnaporthe oryzae assessed as rice blast disease control at 2 ppm foliar application for 24 hr before inoculation at 27 +/- 2 degC measured after 5 days by preventive manner. It counts as functional.
For the compound `CNC(=O)/C(=N/OC)c1ccccc1COc1ccccc1C`, the Activity turned out to be 90%.
Turning to `CNC(=O)/C(=N/OC)c1ccccc1COc1cccc(C)c1C`, the Activity was 90%.
With `CNC(=O)/C(=N/OC)c1ccccc1COc1ccccc1C(F)(F)F`, the Activity is 90%.

The next assay concerns Botrytis cinerea. Briefly: Fungicidal activity against Botryotinia fuckeliana assessed as cucumber gray mold disease control at 125 ppm foliar application […] at 22 +/- 2 degC by preventive manner. It counts as functional.
Turning to `CO/N=C(/C(=O)N(C)C)c1ccccc1COc1cc(C)ccc1C`, the Activity is recorded as 90%.

Another assay deals with Botrytis cinerea. Briefly: Fungicidal activity against Botryotinia fuckeliana assessed as cucumber gray mold disease control at 125 ppm foliar application […] at 22 +/- 2 degC by curative manner. Type of assay: functional.
As for `CO/N=C(/C(=O)N(C)C)c1ccccc1COc1cc(C)ccc1C`, the Activity was less than 90%.
